From ChEMBL document CHEMBL1201862, “PubChem BioAssay data set” (2004)
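96-well plates; 48 h exposure; 5 concentrations. Endpoints by linear interpolation between flanking doses. Not reached: highest tested concentration assigned. At the GI50, growth is halved.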 Calls of active or inactive are those of the source. No stated cut-off is given here; in the data, active = GI50 up to about 1.1 µM and inactive = higher.

Key:
Assay in all cases: growth of human tumour cells (NCI), 48 h
BT-549 = test system: BT-549
HL-60 = test system: HL-60
IGROV-1 = test system: IGROV-1
RPMI-8226 = test system: RPMI-8226
SK-MEL-5 = test system: SK-MEL-5
SR = test system: SR
786-0 = test system: 786-0
A498 = test system: A498
A549 = test system: A549
ACHN = test system: ACHN
CAKI-1 = test system: CAKI-1
CCRF-CEM = test system: CCRF-CEM
COLO 205 = test system: COLO 205
DU-145 = test system: DU-145
EKVX = test system: EKVX
HCC 2998 = test system: HCC 2998
HCT-116 = test system: HCT-116
HCT-15 = test system: HCT-15
HOP-62 = test system: HOP-62
HOP-92 = test system: HOP-92
HT-29 = test system: HT-29
Hs-578T = test system: Hs-578T
K562 = test system: K562
KM12 = test system: KM12
LOX IMVI = test system: LOX IMVI
M14 = test system: M14
MCF7 = test system: MCF7
MDA-MB-231 = test system: MDA-MB-231
MDA-MB-435 = test system: MDA-MB-435
MDA-N = test system: MDA-N
MOLT-4 = test system: MOLT-4
Malme-3M = test system: Malme-3M
NCI-H226 = test system: NCI-H226
NCI-H23 = test system: NCI-H23
NCI-H460 = test system: NCI-H460
NCI-H522 = test system: NCI-H522
NCI/ADR-RES = test system: NCI/ADR-RES
OVCAR-3 = test system: OVCAR-3
OVCAR-4 = test system: OVCAR-4
OVCAR-5 = test system: OVCAR-5
OVCAR-8 = test system: OVCAR-8
PC-3 = test system: PC-3
RXF 393 = test system: RXF 393
SF-268 = test system: SF-268
SF-295 = test system: SF-295
SF-539 = test system: SF-539
SK-MEL-28 = test system: SK-MEL-28
SK-MEL-2 = test system: SK-MEL-2
SK-OV-3 = test system: SK-OV-3
SN12C = test system: SN12C
SNB-19 = test system: SNB-19
SNB-75 = test system: SNB-75
SW-620 = test system: SW-620
T47D = test system: T47D
TK-10 = test system: TK-10
U-251 = test system: U-251
UACC-257 = test system: UACC-257
UACC-62 = test system: UACC-62
UO-31 = test system: UO-31

Oc1cccc2cccnc12
GI50 (BT-549): 61.1 µM (inactive) | GI50 (HL-60): 0.294 µM (active) | GI50 (IGROV-1): 4.27 µM (inactive) | GI50 (RPMI-8226): 0.918 µM (active) | GI50 (SK-MEL-5): 4.86 µM (inactive) | GI50 (SR): 0.342 µM (active)

COC(=O)C1(F)C(=O)NC(=O)NC1O (centres undefined)
GI50 (786-0): > 100 µM (inactive) | GI50 (A498): > 100 µM (inactive) | GI50 (A549): 90.8 µM (inactive) | GI50 (ACHN): > 75 µM (inactive) | GI50 (CAKI-1): 97.9 µM (inactive) | GI50 (CCRF-CEM): > 89.1 µM (inactive) | GI50 (COLO 205): 40.4 µM (inactive) | GI50 (DU-145): > 100 µM (inactive) | GI50 (EKVX): 99.8 µM (inactive) | GI50 (HCC 2998): > 45.9 µM (inactive) | GI50 (HCT-116): 50.8 µM (inactive) | GI50 (HCT-15): 61.5 µM | GI50 (HL-60): 31 µM (inactive) | GI50 (HOP-62): > 100 µM (inactive) | GI50 (HOP-92): > 58.9 µM (inactive) | GI50 (HT-29): > 66.5 µM (inactive) | GI50 (Hs-578T): > 100 µM (inactive) | GI50 (IGROV-1): > 100 µM (inactive) | GI50 (K562): > 84.5 µM (inactive) | GI50 (KM12): 50.2 µM (inactive) | GI50 (LOX IMVI): > 100 µM (inactive) | GI50 (M14): > 100 µM (inactive) | GI50 (MCF7): 10.7 µM (inactive) | GI50 (MDA-MB-231): > 100 µM (inactive) | GI50 (MDA-MB-435): > 100 µM (inactive) | GI50 (MDA-N): > 100 µM (inactive) | GI50 (MOLT-4): 31.8 µM (inactive) | GI50 (Malme-3M): > 100 µM (inactive) | GI50 (NCI-H226): > 100 µM (inactive) | GI50 (NCI-H23): > 100 µM (inactive) | GI50 (NCI-H460): 50.6 µM (inactive) | GI50 (NCI-H522): > 100 µM (inactive) | GI50 (NCI/ADR-RES): > 100 µM (inactive) | GI50 (OVCAR-3): 62.7 µM (inactive) | GI50 (OVCAR-4): 80 µM (inactive) | GI50 (OVCAR-5): > 100 µM (inactive) | GI50 (OVCAR-8): > 100 µM (inactive) | GI50 (PC-3): 50.8 µM (inactive) | GI50 (RPMI-8226): > 100 µM (inactive) | GI50 (RXF 393): > 100 µM (inactive) | GI50 (SF-268): > 100 µM (inactive) | GI50 (SF-295): > 100 µM (inactive) | GI50 (SF-539): 25.4 µM (inactive) | GI50 (SK-MEL-28): > 100 µM (inactive) | GI50 (SK-MEL-2): > 100 µM (inactive) | GI50 (SK-MEL-5): > 100 µM (inactive) | GI50 (SK-OV-3): > 100 µM (inactive) | GI50 (SN12C): > 100 µM (inactive) | GI50 (SNB-19): > 100 µM (inactive) | GI50 (SNB-75): > 65 µM (inactive) | GI50 (SR): > 53 µM (inactive) | GI50 (SW-620): > 77.6 µM (inactive) | GI50 (T47D): > 100 µM (inactive) | GI50 (TK-10): > 100 µM (inactive) | GI50 (U-251): > 100 µM (inactive) | GI50 (UACC-257): > 100 µM (inactive) | GI50 (UACC-62): > 100 µM (inactive) | GI50 (UO-31): 59.4 µM (inactive)
